# Results reported in patent publication US9040717B2, “Pyrazole-amide compounds and pharmaceutical use thereof” (JAPAN TOBACCO INC., priority 2013, dated 2015).
# pIC50: −log10 of the molar value.
# Key:
# liver PDH activity = assay: Ex vivo PDH activation assay, liver; assay type: in vivo, Sprague-Dawley rats
# Method: The action of test compound on tissue PDH activity was evaluated. NADH production was detected via p-iodonitrotetrazolium violet (INT)-coupled system to measure PDH activity.
# Normal male Sprague-Dawley rats were randomly allocated to the vehicle group and the test compound groups. The vehicle (0.5% aqueous methylcellulose solution, 5 mL/kg) or the test compound was orally administered to the rats. At 5 or 20 hr after administration, the rats were anesthetized with an intraperitoneal injection of sodium pentobarbital (60 mg/kg), and liver slices and epididymal adipose tissues were collected.
# To the liver slices were rapidly added 9 volumes of ice-cold homogenization buffer (0.25 mol/L sucrose, 5 mmol/L tris(hydroxymethyl)aminomethane hydrochloride (pH 7.5), 2 mmol/L EDTA), and the mixtures were homogenized using a Polytron homogenizer. The homogenates were centrifuged at 600×g, 4° C. for 10 min to obtain the supernatant. The supernatants (1 mL) were centrifuged at 16,000×g, 4° C. for 10 min to collect the precipitates. The precipitates were washed by resuspension in the homogenization buffer (1 mL) and centrifuged in the same manner. The precipitates were frozen with liquid nitrogen and stored at −80° C. as the liver mitochondrial fraction.
# The mitochondrial fractions were thawed and suspended with the sample buffer (0.25 mol/L sucrose, 20 mmol/L tris(hydroxymethyl)aminomethane hydrochloride (pH 7.5), 50 mmol/L potassium chloride, and 1 mL/L 4-(1,1,3,3-tetramethylbutyl)phenyl-polyethylene glycol (Triton X-100)). Active PDH activity (PDHa activity) and total PDH activity (PDHt activity) were measured to evaluate the PDH activity. For the measurement of the PDHt activity, equal amounts of the mitochondrial suspension and the activation buffer (0.25 mol/L sucrose, 20 mmol/L tris(hydroxymethyl)aminomethane hydrochloride (pH 7.5), 50 mmol/L potassium chloride, 1 mL/L Triton X-100, 4 mmol/L calcium chloride, 40 mmol/L magnesium chloride, 10 mmol/L sodium dichloroacetate) were mixed, and the mixtures were incubated at 37° C. for 10 min. Forty microliters of the mitochondrial suspensions diluted with a sample buffer were added to a 96-well microplate for activity measurement and blank measurement. Then 180 μL of the reaction mixture (0.056 mmol/L potassium phosphate buffer (pH 7.5), 5.6 mmol/L DL-carnitine, 2.8 mmol/L NAD, 0.22 mmol/L thiamin pyrophosphate, 0.11 mmol/L Coenzyme A, 1.1 mL/L Triton X-100, 1.1 mmol/L magnesium chloride, 1.1 g/L bovine serum albumin, 0.67 mmol/L INT, 7.2 μmol/L phenazine methosulfate, 28 mmol/L sodium oxamate) was added to each well, and then 20 μL of 50 mmol/L sodium pyruvate for activity measurement or water for blank measurement were added. The mixtures were incubated at room temperature under shading. The absorbances at 500-750 nm, which were attributable to reduction of INT, the final electron acceptor, were measured using a microplate reader over time and the changes in the absorbance were calculated. The PDH activity was calculated by subtraction of the change in absorbance of the blank well from that of the activity measurement well. The percentage of the PDHa activity to the PDHt activity was calculated and taken as an index of the PDH activation.
# [1] = Metabolic stability test in human liver microsome; assay type: in vitro ADME; settings: 5 μM, 37° C.
# Method: Human liver microsome (manufactured by Xenotech, H0620, final concentration (after dilution), 0.2 mg protein/mL) was suspended in 100 mM potassium phosphate buffer (pH 7.4, containing β-nicotinamide adenine dinucleotide phosphate: 1.3 mM, D-glucose-6-phosphate: 3.3 mM, magnesium chloride: 3.3 mM, glucose-6-phosphate dehydrogenase: 0.45 U/mL), and further mixed with a test compound dissolved in MeCN/DMSO (95/5) (final concentration 5 μM). The mixture was incubated at 37° C. for 10 min and 60 min, acetonitrile containing formic acid (final concentration 0.1%) was added, and the mixture was centrifuged. The test compound (unmodified) in the supernatant was measured by high performance liquid chromatography/mass spectrometry (LC/MS) (manufactured by Waters, LC: Acquity UPLC, MS:SQ Detector or TQ Detector). The residual ratio (%) was calculated from the obtained measurement value.
# human PDHK1 (hPDHK1) = human PDHK1 (hPDHK1) (Homo sapiens (Human), UniProt Q15118); assay: Inhibitory action of PDHK1 activity in vitro (residual PDH activity after kinase reaction); assay type: biochemical
# Chain of human PDHK1 (hPDHK1) (Q15118 29-436): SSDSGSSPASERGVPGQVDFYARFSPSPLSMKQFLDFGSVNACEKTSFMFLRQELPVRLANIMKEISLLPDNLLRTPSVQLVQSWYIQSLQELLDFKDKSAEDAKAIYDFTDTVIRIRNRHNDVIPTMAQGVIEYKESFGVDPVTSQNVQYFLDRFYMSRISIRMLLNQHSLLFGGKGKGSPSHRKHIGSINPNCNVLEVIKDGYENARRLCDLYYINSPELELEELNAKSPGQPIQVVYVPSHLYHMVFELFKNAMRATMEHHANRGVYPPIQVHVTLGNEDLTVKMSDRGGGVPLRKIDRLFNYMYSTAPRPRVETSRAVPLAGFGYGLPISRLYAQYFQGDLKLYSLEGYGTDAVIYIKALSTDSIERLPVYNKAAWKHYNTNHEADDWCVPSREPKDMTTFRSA
# Method: The inhibitory action of PDHK activity was assessed indirectly by measuring the residual PDH activity after kinase reaction in the presence of a test compound.
# The recombinant construct was transformed into Escherichia coli (DH5α-TOYOBO). The recombinant clones were identified, and plasmid DNA was isolated and subjected to the DNA sequence analysis. One clone which had the expected nucleic acid sequence was selected for expression work.
# The Escherichia coli were grown to an optical density 0.6 ([…]) at 30° C. Protein expression was induced by the addition of 500 μmol/L isopropyl-β-thiogalactopyranoside. The Escherichia coli were cultured at 30° C. for 5 hr and harvested by centrifugation. Resuspension of the Escherichia coli paste was disrupted by a microfluidizer.
# The eluted fractions containing FLAG-Tagged protein were pooled, dialyzed against 20 mmol/L HEPES-NaOH, 150 mmol/L sodium chloride, 0.5 mmol/L ethylenediamine tetraacetic acid (EDTA), 1% ethylene glycol, and 0.1% Pluronic F-68 (pH 8.0), and preserved at −80° C.
# The mixture was incubated at room temperature for 90 min, and the residual PDH activity was measured.
# The absorbance at 340 nm before and after PDH reaction was measured using a microplate reader to detect NADH produced by the PDH reaction.
# [2] = Table 2, 5 hr after oral 3 mg/kg, non-fasting SD rats, vehicle 13 ± 3, mean ± S.D. (n = 3)
# [3] = Table 2, 20 hr after oral 3 mg/kg, non-fasting SD rats, vehicle 13 ± 3, mean ± S.D. (n = 3)
SMILES,PDHa activity (% of PDHt activity) (liver PDH activity; [2]),PDHa activity (% of PDHt activity) (liver PDH activity; [3]),Stability in liver microsome (residual ratio %) ([1]; 10 min) [%],Stability in liver microsome (residual ratio %) ([1]; 60 min) [%],pIC50 (human PDHK1 (hPDHK1)),"PDHa activity (% of PDHt activity) (liver PDH activity; Table 3, 5 hr after oral 3 mg/kg, SD rats, vehicle 28 ± 6, mean ± S.D. (n = 3))","PDHa activity (% of PDHt activity) (liver PDH activity; Table 3, 20 hr after oral 3 mg/kg, SD rats, vehicle 28 ± 6, mean ± S.D. (n = 3))"
"Cn1cc(-c2cc(OCC(C)(C)O)cc3c2-c2ccccc2[C@]3(O)C(F)(F)F)cn1 [Compound (B), (9R)-2-(2-Hydroxy-2-methylpropoxy)-4-(1-methyl-1H-pyrazol-4-yl)-9-(trifluoromethyl)-9H-fluoren-9-ol]",43 ± 7 % of PDHt activity,10 ± 3 % of PDHt activity,98.0,88.2,,,
"CC(C)(O)CCOc1cc(-c2cnn(C(C)(C)C(N)=O)c2)c2c(c1)[C@@](O)(C(F)(F)F)c1ccccc1-2 [Compound (2), 2-{4-[(9R)-9-hydroxy-2-(3-hydroxy-3-methylbutyloxy)-9-(trifluoromethyl)-9H-fluoren-4-yl]-1H-pyrazol-1-yl}-2-methylpropanamide]",,,98.8,96.5,8.33,74 ± 12 % of PDHt activity,50 ± 16 % of PDHt activity
"CC(C)(O)CCCOc1cc(-c2cnn(C(C)(C)C(N)=O)c2)c2c(c1)[C@@](O)(C(F)(F)F)c1ccccc1-2 [Compound (3), 2-{4-[(9R)-9-hydroxy-2-(4-hydroxy-4-methylpentyloxy)-9-(trifluoromethyl)-9H-fluoren-4-yl]-1H-pyrazol-1-yl}-2-methylpropanamide]",56 ± 8 % of PDHt activity,32 ± 9 % of PDHt activity,98.4,85.9,8.46,,
"NC(=O)Cn1cc(-c2cc(OCCC34CC5CC(CC(O)(C5)C3)C4)cc3c2-c2ccccc2[C@]3(O)C(F)(F)F)cn1 [Compound (A), 2-(4-{(9R)-9-Hydroxy-2-[2-(3-hydroxyadamantan-1-yl)ethoxy]-9-(trifluoromethyl)-9H-fluoren-4-yl}-1H-pyrazol-1-yl)acetamide]",35 ± 6 % of PDHt activity,16 ± 10 % of PDHt activity,34.8,0.0,,,
